Data from US20240239785A1, “SUBSTITUTED 2-(2,6-DIOXOPIPERIDIN-3-YL)-5-(1-PIPERIDIN-4-YL)ISOINDOLINE-1,3-DIONE DERIVATIVES AND USES THEREOF” (Neomorph, Inc., priority 2021, published 2024).
Structures can show the parent of a compound that is named as a salt.

Target: T1, IKZF2 (Homo sapiens, UniProt Q96SW2+Q9UKS7)
T1 construct: endogenous in cells; host or cells: MOLT4 (CRISPR/Cas9 HiBit knock-in at the IKZF2 locus)
Assay: MOLT4 IKZF2 HiBit assay
Assay type: cell-based
Conditions: MOLT4 IKZF2 HiBit cells; for DC50: 6 hours incubation, 10-point dose response from 30 μM; for Dmax at 30 µM: MOLT-4, 6 hr (Dmax), read-out: % reduction of IKZF2 @ 30 μM (6 hr)
Description: MOLT4 IKZF2 HiBit Assay Protocol:
This protocol used MOLT4 cells that were engineered using CRISPR/Cas9-mediated genomic insertion of HiBit, tagged to the N terminus of the IKZF2 coding sequence. Day 1. A 10-point dose response was created starting from 30 μM down to InM using a Tecan D300e. Next was added 8,000 cells/well of the MOLT4 IKZF2 HiBit cells to the compound plate. The compounds plate was incubated for 6 hours. Day 2. Nano-Glo HiBit Lytic Buffer/Nano-Glo HiBit Lytic substrate/LgBit Protein mix was added to each well and the compound plate was incubated for 15 minutes. Finally, luminescence signal was read using a BMG Labtech PHERAstar FSX. Data was normalized to DMSO and graphed using GraphPad Prism to determine the concentration points at which 50% of HiBiT-Helios degradation was achieved by each compound. The extent of degradation (range of luminescence) from the highest to lowest concentration points was calculated to determine Dmax.

T1 sequence (Q9UKS7 whole entry): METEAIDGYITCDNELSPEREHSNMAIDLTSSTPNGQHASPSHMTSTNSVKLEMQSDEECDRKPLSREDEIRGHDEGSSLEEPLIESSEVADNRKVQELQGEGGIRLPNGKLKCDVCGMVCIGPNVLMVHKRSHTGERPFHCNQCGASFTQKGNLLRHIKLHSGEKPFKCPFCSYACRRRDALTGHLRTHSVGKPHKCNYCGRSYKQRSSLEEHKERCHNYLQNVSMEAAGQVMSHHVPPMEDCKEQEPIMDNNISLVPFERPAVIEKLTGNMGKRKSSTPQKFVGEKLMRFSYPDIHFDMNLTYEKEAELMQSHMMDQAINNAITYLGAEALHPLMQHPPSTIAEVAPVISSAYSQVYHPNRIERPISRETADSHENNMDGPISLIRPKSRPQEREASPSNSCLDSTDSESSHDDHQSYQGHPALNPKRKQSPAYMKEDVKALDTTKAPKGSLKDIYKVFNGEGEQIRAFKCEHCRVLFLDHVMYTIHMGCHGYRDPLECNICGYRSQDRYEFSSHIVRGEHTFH
T1 sequence (Q96SW2 whole entry): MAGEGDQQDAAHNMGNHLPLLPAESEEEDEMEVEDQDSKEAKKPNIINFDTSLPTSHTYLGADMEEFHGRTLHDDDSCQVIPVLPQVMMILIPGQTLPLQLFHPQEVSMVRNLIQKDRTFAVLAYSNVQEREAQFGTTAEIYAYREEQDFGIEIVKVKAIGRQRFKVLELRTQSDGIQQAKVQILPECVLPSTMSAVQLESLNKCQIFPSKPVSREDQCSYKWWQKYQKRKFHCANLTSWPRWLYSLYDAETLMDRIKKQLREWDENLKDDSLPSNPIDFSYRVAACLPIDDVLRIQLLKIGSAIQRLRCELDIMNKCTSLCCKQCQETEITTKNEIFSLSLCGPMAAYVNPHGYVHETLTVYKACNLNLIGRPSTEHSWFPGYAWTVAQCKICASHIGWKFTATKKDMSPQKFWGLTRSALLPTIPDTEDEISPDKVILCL
T1 sequence (Q16531 whole entry partner): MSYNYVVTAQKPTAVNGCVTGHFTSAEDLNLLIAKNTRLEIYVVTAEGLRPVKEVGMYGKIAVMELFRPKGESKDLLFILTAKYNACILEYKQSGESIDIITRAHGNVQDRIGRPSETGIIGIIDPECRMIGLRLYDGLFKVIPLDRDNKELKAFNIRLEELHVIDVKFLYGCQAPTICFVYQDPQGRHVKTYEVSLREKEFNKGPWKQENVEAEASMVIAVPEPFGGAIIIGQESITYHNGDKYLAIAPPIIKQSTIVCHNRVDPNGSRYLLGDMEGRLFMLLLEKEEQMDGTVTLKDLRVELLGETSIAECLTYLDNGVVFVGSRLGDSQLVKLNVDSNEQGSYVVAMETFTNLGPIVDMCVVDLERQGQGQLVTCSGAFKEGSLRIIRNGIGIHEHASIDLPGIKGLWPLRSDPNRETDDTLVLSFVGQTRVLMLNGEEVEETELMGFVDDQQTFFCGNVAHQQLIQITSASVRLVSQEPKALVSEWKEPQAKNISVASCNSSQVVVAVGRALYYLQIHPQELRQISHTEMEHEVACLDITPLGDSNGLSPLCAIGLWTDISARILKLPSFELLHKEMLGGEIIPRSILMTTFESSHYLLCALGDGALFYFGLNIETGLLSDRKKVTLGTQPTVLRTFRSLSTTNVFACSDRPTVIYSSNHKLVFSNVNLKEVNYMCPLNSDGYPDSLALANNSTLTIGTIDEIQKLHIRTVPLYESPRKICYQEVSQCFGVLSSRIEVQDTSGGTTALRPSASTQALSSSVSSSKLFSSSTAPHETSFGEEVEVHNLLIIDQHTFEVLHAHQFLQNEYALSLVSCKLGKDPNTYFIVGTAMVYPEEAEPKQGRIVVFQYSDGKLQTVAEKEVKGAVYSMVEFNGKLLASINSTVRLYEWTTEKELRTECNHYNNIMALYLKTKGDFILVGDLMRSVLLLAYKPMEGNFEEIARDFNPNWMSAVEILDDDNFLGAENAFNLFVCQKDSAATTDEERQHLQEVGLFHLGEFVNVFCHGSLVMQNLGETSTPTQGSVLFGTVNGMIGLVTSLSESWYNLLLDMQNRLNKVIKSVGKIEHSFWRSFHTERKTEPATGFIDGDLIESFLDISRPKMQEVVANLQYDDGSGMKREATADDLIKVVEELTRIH

Row | Structure (SMILES) | DC50 [nM] | Dmax at 30 µM [%]
1 | O=C1CCC(N2C(=O)c3ccc(C4(O)CCN(C(CF)c5ccccc5)CC4)cc3C2=O)C(=O)N1 (stereo not drawn) [Compound 34, 2-(2,6-dioxopiperidin-3-yl)-5-[1-(2-fluoro-1-phenylethyl)-4-hydroxypiperidin-4-yl]-2,3-dihydro-1H-isoindole-1,3-dione, formic acid salt] | 31 | 76
2 | CC(c1ccccc1)N1CCC(O)(c2ccc3c(c2)C(=O)N(C2CCC(=O)NC2=O)C3=O)CC1 (stereo not drawn) [Compound 35, 2-(2,6-dioxopiperidin-3-yl)-5-[4-hydroxy-1-(1-phenylethyl)piperidin-4-yl]-2,3-dihydro-1H-isoindole-1,3-dione, HCl salt] | 4 | 84
3 | N#Cc1cccc(CN2CCC(O)(c3ccc4c(c3)C(=O)N(C3CCC(=O)NC3=O)C4=O)CC2)c1 (stereo not drawn) [Compound 42, 3-({4-[2-(2,6-dioxopiperidin-3-yl)-1,3-dioxo-2,3-dihydro-1H-isoindol-5-yl]-4-hydroxypiperidin-1-yl}methyl)benzonitrile] | 9 | 80
4 | N#Cc1ccc(CN2CCC(O)(c3ccc4c(c3)C(=O)N(C3CCC(=O)NC3=O)C4=O)CC2)cc1 (stereo not drawn) [Compound 57, 4-({4-[2-(2,6-dioxopiperidin-3-yl)-1,3-dioxo-2,3-dihydro-1H-isoindol-5-yl]-4-hydroxypiperidin-1-yl}methyl)benzonitrile] | 6 | 81
5 | COCc1ccc(CN2CCC(O)(c3ccc4c(c3)C(=O)N(C3CCC(=O)NC3=O)C4=O)CC2)cc1 (stereo not drawn) [Compound 61, 2-(2,6-dioxopiperidin-3-yl)-5-(4-hydroxy-1-{[4-(methoxymethyl)phenyl]methyl}piperidin-4-yl)-2,3-dihydro-1H-isoindole-1,3-dione, HCl salt] | 5 | 83
6 | O=C1CCC(N2C(=O)c3ccc(C4(O)CCN(Cc5ccccn5)CC4)cc3C2=O)C(=O)N1 (stereo not drawn) [Compound 68, 2-(2,6-dioxopiperidin-3-yl)-5-{4-hydroxy-1-[(pyridin-2-yl)methyl]piperidin-4-yl}-2,3-dihydro-1H-isoindole-1,3-dione, HCl salt] | 21 | 71
7 | O=C1CCC(N2C(=O)c3ccc(C4(O)CCN(Cc5cccnc5)CC4)cc3C2=O)C(=O)N1 (stereo not drawn) [Compound 69, 2-(2,6-dioxopiperidin-3-yl)-5-{4-hydroxy-1-[(pyridin-3-yl)methyl]piperidin-4-yl}-2,3-dihydro-1H-isoindole-1,3-dione, formic acid salt] | 39 | 72
8 | O=C1CCC(N2C(=O)c3ccc(C4(O)CCN(Cc5ccncc5)CC4)cc3C2=O)C(=O)N1 (stereo not drawn) [Compound 70, 2-(2,6-dioxopiperidin-3-yl)-5-{4-hydroxy-1-[(pyridin-4-yl)methyl]piperidin-4-yl}-2,3-dihydro-1H-isoindole-1,3-dione, HCl salt] | 20 | 78
9 | COc1ccc(CN2CCC(O)(c3ccc4c(c3)C(=O)N(C3CCC(=O)NC3=O)C4=O)CC2)cn1 (stereo not drawn) [Compound 72, 2-(2,6-dioxopiperidin-3-yl)-5-{4-hydroxy-1-[(6-methoxypyridin-3-yl)methyl]piperidin-4-yl}-2,3-dihydro-1H-isoindole-1,3-dione, HCl salt] | 1 | 80
10 | COC[C@H]1CC[C@H](CN2CCC(O)(c3ccc4c(c3)C(=O)N(C3CCC(=O)NC3=O)C4=O)CC2)CC1 (stereo partly drawn) [Compound 84, trans-2-(2,6-dioxopiperidin-3-yl)-5-(4-hydroxy-1-((4-(methoxymethyl)cyclohexyl)methyl)piperidin-4-yl)isoindoline-1,3-dione] | 8.3 | 60
11 | COC[C@H]1CC[C@H](CN2CCC(c3ccc4c(c3)C(=O)N(C3CCC(=O)NC3=O)C4=O)CC2)CC1 (stereo partly drawn) [Compound 85, trans-2-(2,6-dioxopiperidin-3-yl)-5-(1-((4-(methoxymethyl)cyclohexyl)methyl)piperidin-4-yl)isoindoline-1,3-dione formic acid] | – | 25
12 | O=C1CCC(N2C(=O)c3ccc(C4(O)CCN(Cc5coc(-c6ccccc6)n5)CC4)cc3C2=O)C(=O)N1 (stereo not drawn) [Compound 91, 2-(2,6-dioxopiperidin-3-yl)-5-{4-hydroxy-1-[(2-phenyl-1,3-oxazol-4-yl)methyl]piperidin-4-yl}-2,3-dihydro-1H-isoindole-1,3-dione, HCl salt] | 21 | 60
13 | O=C1CCC(N2C(=O)c3ccc(C4(O)CCN(Cc5ccn(-c6ccccc6)n5)CC4)cc3C2=O)C(=O)N1 (stereo not drawn) [Compound 94, 2-(2,6-dioxopiperidin-3-yl)-5-{4-hydroxy-1-[(1-phenyl-1H-pyrazol-3-yl)methyl]piperidin-4-yl}-2,3-dihydro-1H-isoindole-1,3-dione, HCl salt] | 8 | 79
14 | O=C1CCC(N2C(=O)c3ccc(C4CCN(Cc5ccc6ncn(-c7ccccn7)c(=O)c6c5)CC4)cc3C2=O)C(=O)N1 (stereo not drawn) [Compound 97, 2-(2,6-dioxopiperidin-3-yl)-5-(1-((4-oxo-3-(pyridin-2-yl)-3,4-dihydroquinazolin-6-yl)methyl)piperidin-4-yl)isoindoline-1,3-dione] | – | 36
15 | O=C1CCC(N2C(=O)c3ccc(C4(O)CCN(Cc5ccc6ncn(-c7ccccn7)c(=O)c6c5)CC4)cc3C2=O)C(=O)N1 (stereo not drawn) [Compound 98, 2-(2,6-dioxopiperidin-3-yl)-5-(4-hydroxy-1-((4-oxo-3-(pyridin-2-yl)-3,4-dihydroquinazolin-6-yl)methyl)piperidin-4-yl)isoindoline-1,3-dione] | 1.5 | 72
16 | O=C1CCC(N2C(=O)c3ccc(C4(O)CCN(Cc5ccc6ncn(-c7cccnc7)c(=O)c6c5)CC4)cc3C2=O)C(=O)N1 (stereo not drawn) [Compound 99, 2-(2,6-dioxopiperidin-3-yl)-5-(4-hydroxy-1-{[4-oxo-3-(pyridin-3-yl)-3,4-dihydroquinazolin-6-yl]methyl}piperidin-4-yl)-2,3-dihydro-1H-isoindole-1,3-dione, formic acid salt] | 1 | 89
17 | O=C1CCC(N2C(=O)c3ccc(C4(O)CCN(Cc5ccccc5)CC4)c(F)c3C2=O)C(=O)N1 (stereo not drawn) [Compound 128, 5-(1-benzyl-4-hydroxypiperidin-4-yl)-2-(2,6-dioxopiperidin-3-yl)-4-fluoro-2,3-dihydro-1H-isoindole-1,3-dione, HCl salt] | 2 | 81
18 | Cn1ncc2ccc(CN3CCC(O)(c4ccc5c(c4)C(=O)N(C4CCC(=O)NC4=O)C5=O)CC3)cc21 (stereo not drawn) [Compound 140, 2-(2,6-dioxopiperidin-3-yl)-5-{4-hydroxy-1-[(1-methyl-1H-indazol-6-yl)methyl]piperidin-4-yl}-2,3-dihydro-1H-isoindole-1,3-dione, formic acid salt] | 3 | 87
19 | Cn1ccc2cc(CN3CCC(O)(c4ccc5c(c4)C(=O)N(C4CCC(=O)NC4=O)C5=O)CC3)ccc21 (stereo not drawn) [Compound 141, 2-(2,6-dioxopiperidin-3-yl)-5-{4-hydroxy-1-[(1-methyl-1H-indol-5-yl)methyl]piperidin-4-yl}-2,3-dihydro-1H-isoindole-1,3-dione, HCl salt] | 11 | 86
20 | Cn1c(CN2CCC(O)(c3ccc4c(c3)C(=O)N(C3CCC(=O)NC3=O)C4=O)CC2)cc2ccccc21 (stereo not drawn) [Compound 142, 2-(2,6-dioxopiperidin-3-yl)-5-{4-hydroxy-1-[(1-methyl-1H-indol-2-yl)methyl]piperidin-4-yl}-2,3-dihydro-1H-isoindole-1,3-dione, formic acid salt] | 13 | 82
21 | CC(c1ccc(C(F)(F)F)cc1)N1CCC(O)(c2ccc3c(c2)C(=O)N(C2CCC(=O)NC2=O)C3=O)CC1 (stereo not drawn) [Compound 143, 2-(2,6-dioxopiperidin-3-yl)-5-(4-hydroxy-1-{1-[4-(trifluoromethyl)phenyl]ethyl}piperidin-4-yl)-2,3-dihydro-1H-isoindole-1,3-dione, HCl salt] | 6 | 84
22 | O=C1CCC(N2C(=O)c3ccc(C4(O)CCN(Cc5ccc6[nH]ccc6c5)CC4)cc3C2=O)C(=O)N1 (stereo not drawn) [Compound 144, 2-(2,6-dioxopiperidin-3-yl)-5-{4-hydroxy-1-[(1H-indol-5-yl)methyl]piperidin-4-yl}-2,3-dihydro-1H-isoindole-1,3-dione, formic acid salt] | 16 | 88
23 | Cn1ncc2cc(CN3CCC(O)(c4ccc5c(c4)C(=O)N(C4CCC(=O)NC4=O)C5=O)CC3)ccc21 (stereo not drawn) [Compound 145, 2-(2,6-dioxopiperidin-3-yl)-5-{4-hydroxy-1-[(1-methyl-1H-indazol-5-yl)methyl]piperidin-4-yl}-2,3-dihydro-1H-isoindole-1,3-dione, formic acid salt] | 4 | 83
24 | CCCN1CCC(O)(c2ccc3c(c2)C(=O)N(C2CCC(=O)NC2=O)C3=O)CC1 (stereo not drawn) [Compound 146, 2-(2,6-dioxopiperidin-3-yl)-5-(4-hydroxy-1-propylpiperidin-4-yl)-2,3-dihydro-1H-isoindole-1,3-dione, HCl salt] | 43 | 69
25 | O=C1CCC(N2C(=O)c3ccc(C4(O)CCN(Cc5ccc(-c6nccs6)cc5)CC4)cc3C2=O)C(=O)N1 (stereo not drawn) [Compound 147, 2-(2,6-dioxopiperidin-3-yl)-5-(4-hydroxy-1-{[4-(1,3-thiazol-2-yl)phenyl]methyl}piperidin-4-yl)-2,3-dihydro-1H-isoindole-1,3-dione, HCl salt] | 8 | 88
